Reference: ChEMBL document CHEMBL1671792, “Conformationally constrained farnesoid X receptor (FXR) agonists: heteroaryl replacements of the naphthalene” (Bioorg Med Chem Lett, 2011)
In brackets after ≈: the same amount, converted by molar mass. Activity calls are given as the source filed them. The calls are words filed in the database; no cut-off is given here.

Legend:
Mus musculus [1] = experiment: Antidiabetic activity in diet-induced obese mouse assessed as change in body weight at 100 mg/kg, po for 4 weeks measured after 4 weeks (reference value: 29.1+/-0.8 g); format: functional
Mus musculus [2] = experiment: Antidiabetic activity in diet-induced obese mouse assessed as NEFA level at 10 mg/kg, po for 4 weeks (reference value: 0.46 +/-0.02 mEq/dL); format: functional
Mus musculus [3] = experiment: Antidiabetic activity in diet-induced obese mouse assessed as glycerol level at 10 mg/kg, po for 4 weeks (reference value: 11.0 +/-1.3 mg/dL); format: functional
Mus musculus [4] = experiment: Antidiabetic activity in diet-induced obese mouse assessed as serum glucose level at 30 mg/kg, po for 4 weeks (reference value: 316.5 +/-13.2 mg/dL); format: functional
Mus musculus [5] = experiment: Antidiabetic activity in diet-induced obese mouse assessed as serum insulin level at 30 mg/kg, po for 4 weeks (reference value: […]); format: functional
Mus musculus [6] = experiment: Antidiabetic activity in diet-induced obese mouse assessed as NEFA level at 30 mg/kg, po for 4 weeks (reference value: 0.46 +/-0.02 mEq/dL); format: functional
Mus musculus [7] = experiment: Antidiabetic activity in diet-induced obese mouse assessed as beta-hydroxybutyrate level at 30 mg/kg, po for 4 weeks (reference value: 1.7 +/-0.1 mg/dL); format: functional
Mus musculus [8] = experiment: Antidiabetic activity in diet-induced obese mouse assessed as serum glucose level at 100 mg/kg, po for 4 weeks (reference value: 316.5 +/-13.2 mg/dL); format: functional
Mus musculus [9] = experiment: Antidiabetic activity in diet-induced obese mouse assessed as total cholesterol level at 100 mg/kg, po for 4 weeks (reference value: 140.0 +/-2.8 mg/dL); format: functional
Mus musculus [10] = experiment: Antidiabetic activity in diet-induced obese mouse assessed as glycerol level at 100 mg/kg, po for 4 weeks (reference value: 11.0 +/-1.3 mg/dL); format: functional
Mus musculus [11] = experiment: Antidiabetic activity in diet-induced obese mouse assessed as beta-hydroxybutyrate level at 100 mg/kg, po for 4 weeks (reference value: 1.7 +/-0.1 mg/dL); format: functional
Bile acid receptor = target: T1, Bile acid receptor (Homo sapiens, UniProt Q96RI1); experiment: Agonist activity at human FXR LBD assessed as SRC1 peptide recruitment by FRET assay; format: functional
T1 sequence (Q96RI1 whole entry): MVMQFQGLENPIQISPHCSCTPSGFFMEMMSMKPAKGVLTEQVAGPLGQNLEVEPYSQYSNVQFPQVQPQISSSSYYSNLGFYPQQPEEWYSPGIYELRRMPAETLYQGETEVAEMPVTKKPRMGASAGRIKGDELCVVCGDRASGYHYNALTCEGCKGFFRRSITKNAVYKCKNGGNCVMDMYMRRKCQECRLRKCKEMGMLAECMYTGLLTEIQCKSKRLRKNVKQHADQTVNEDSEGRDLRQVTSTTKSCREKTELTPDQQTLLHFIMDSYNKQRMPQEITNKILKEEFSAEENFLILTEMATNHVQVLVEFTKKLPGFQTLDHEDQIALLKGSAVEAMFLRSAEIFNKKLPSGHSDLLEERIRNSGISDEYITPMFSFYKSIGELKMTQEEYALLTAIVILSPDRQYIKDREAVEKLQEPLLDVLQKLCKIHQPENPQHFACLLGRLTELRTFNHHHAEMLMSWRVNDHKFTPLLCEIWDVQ

[12] = Half life in iv dosed mouse; format: ADME, organism-based; details: in vivo
[13] = Half life in iv dosed Beagle dog; format: ADME, organism-based, Canis lupus familiaris; details: in vivo
[14] = Volume of distribution at steady state in iv dosed mouse; format: ADME, organism-based; details: in vivo, read-out: Vdss
[15] = Volume of distribution at steady state in iv dosed cynomolgus monkey; format: ADME, organism-based, Macaca fascicularis; details: in vivo, read-out: Vdss
[16] = Oral bioavailability in mouse; format: ADME, organism-based; details: in vivo
[17] = Oral bioavailability in Beagle dog; format: ADME, organism-based, Canis lupus familiaris; details: in vivo
[18] = Oral bioavailability in cynomolgus monkey; format: ADME, organism-based, Macaca fascicularis; details: in vivo
Mus musculus [19] = experiment: Dose normalized AUC in orally dosed mouse; format: ADME, organism-based; details: in vivo, po
Rattus norvegicus = experiment: Dose normalized AUC in orally dosed rat; format: ADME, organism-based; details: in vivo, po
Canis familiaris = experiment: Dose normalized AUC in orally dosed Beagle dog; format: ADME, organism-based, Canis lupus familiaris; details: in vivo, po
Cynomolgus monkey = experiment: Dose normalized AUC in orally dosed cynomolgus monkey; format: ADME, organism-based, Macaca fascicularis; details: in vivo, po
Cytochrome P450 2C19 = Cytochrome P450 2C19 (Homo sapiens, UniProt P33261); experiment: Inhibition of CYP2C19 in human liver microsome; format: microsomes
Cytochrome P450 2C19, sequence (P33261 whole entry): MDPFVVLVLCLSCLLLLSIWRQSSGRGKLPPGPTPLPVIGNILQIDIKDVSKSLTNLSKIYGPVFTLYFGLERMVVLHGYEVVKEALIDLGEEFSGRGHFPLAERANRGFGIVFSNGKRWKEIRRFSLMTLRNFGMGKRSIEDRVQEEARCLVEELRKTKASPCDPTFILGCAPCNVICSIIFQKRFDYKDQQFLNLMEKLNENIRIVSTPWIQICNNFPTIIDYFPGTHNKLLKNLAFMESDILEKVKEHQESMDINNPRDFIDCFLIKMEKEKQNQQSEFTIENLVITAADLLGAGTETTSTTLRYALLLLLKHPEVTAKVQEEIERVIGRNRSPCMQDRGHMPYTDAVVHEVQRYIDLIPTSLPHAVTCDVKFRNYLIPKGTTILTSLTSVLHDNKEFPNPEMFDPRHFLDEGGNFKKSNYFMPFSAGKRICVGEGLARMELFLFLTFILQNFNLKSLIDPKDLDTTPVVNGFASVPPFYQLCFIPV

Cytochrome P450 2D6 = Cytochrome P450 2D6 (Homo sapiens, UniProt P10635); experiment: Inhibition of CYP2D6 in human liver microsome; format: microsomes
Cytochrome P450 2D6, sequence (P10635 whole entry): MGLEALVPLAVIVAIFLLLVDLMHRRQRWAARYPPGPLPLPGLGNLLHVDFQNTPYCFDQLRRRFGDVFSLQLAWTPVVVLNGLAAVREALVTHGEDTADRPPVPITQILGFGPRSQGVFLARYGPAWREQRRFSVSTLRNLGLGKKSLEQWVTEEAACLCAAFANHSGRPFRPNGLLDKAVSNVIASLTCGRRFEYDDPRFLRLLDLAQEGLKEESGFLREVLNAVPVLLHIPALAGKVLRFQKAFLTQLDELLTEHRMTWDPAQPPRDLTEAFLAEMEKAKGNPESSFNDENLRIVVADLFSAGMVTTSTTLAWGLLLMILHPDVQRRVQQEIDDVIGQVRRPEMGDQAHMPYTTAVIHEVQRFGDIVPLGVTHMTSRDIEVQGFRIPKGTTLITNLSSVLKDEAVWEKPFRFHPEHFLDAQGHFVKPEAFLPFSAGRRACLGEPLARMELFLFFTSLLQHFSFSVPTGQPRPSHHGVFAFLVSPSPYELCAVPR

Homo sapiens [20] = species on record: Homo sapiens; experiment: Selectivity ratio of EC50 for human FXR to EC50 for human LRH
Homo sapiens [21] = species on record: Homo sapiens; experiment: Selectivity ratio of EC50 for human FXR to EC50 for human LXRbeta
Homo sapiens [22] = species on record: Homo sapiens; experiment: Selectivity ratio of EC50 for human FXR to EC50 for human PPARalpha
Homo sapiens [23] = species on record: Homo sapiens; experiment: Selectivity ratio of EC50 for human FXR to EC50 for human PPARgamma
Homo sapiens [24] = species on record: Homo sapiens; experiment: Selectivity ratio of EC50 for human FXR to EC50 for human PPARdelta
Homo sapiens [25] = species on record: Homo sapiens; experiment: Selectivity ratio of EC50 for human FXR to EC50 for human PXR
Homo sapiens [26] = species on record: Homo sapiens; experiment: Selectivity ratio of EC50 for human FXR to EC50 for human RXRalpha
[27] = Permeability across MDCK cell membrane; format: ADME, cell-based, Canis lupus familiaris; details: dog
[28] = Solubility of compound in fasted state-simulated intestinal fluid at pH 6.5; format: physicochemical; details: simulated gi fluid
[29] = target: T2, Bile acid receptor (Homo sapiens) (UniProt Q96RI1); experiment: Binding affinity to human FXR by X-ray crystallography
T2 sequence (whole entry): T1 sequence (Q96RI1 whole entry)

Mus musculus [30] = experiment: Antidiabetic activity in diet-induced obese mouse assessed as change in body weight at 10 mg/kg, po for 4 weeks measured after 1 week (reference value: 30.3+/-0.8 g); format: functional
Mus musculus [31] = experiment: Antidiabetic activity in diet-induced obese mouse assessed as change in body weight at 10 mg/kg, po for 4 weeks measured after 2 weeks (reference value: 30.3+/-0.8 g); format: functional
Mus musculus [32] = experiment: Antidiabetic activity in diet-induced obese mouse assessed as change in body weight at 10 mg/kg, po for 4 weeks measured after 3 weeks (reference value: 30.3+/-0.8 g); format: functional
Mus musculus [33] = experiment: Antidiabetic activity in diet-induced obese mouse assessed as change in body weight at 30 mg/kg, po for 4 weeks measured after 1 week (reference value: 29.6+/-0.9 g); format: functional
Mus musculus [34] = experiment: Antidiabetic activity in diet-induced obese mouse assessed as change in body weight at 30 mg/kg, po for 4 weeks measured after 4 weeks (reference value: 29.6+/-0.9 g); format: functional
Mus musculus [35] = experiment: Antidiabetic activity in diet-induced obese mouse assessed as change in body weight at 100 mg/kg, po for 4 weeks measured after 1 week (reference value: 29.1+/-0.8 g); format: functional
Mus musculus [36] = experiment: Antidiabetic activity in diet-induced obese mouse assessed as change in body weight at 100 mg/kg, po for 4 weeks measured after 2 weeks (reference value: 29.1+/-0.8 g); format: functional
Mus musculus [37] = experiment: Antidiabetic activity in diet-induced obese mouse assessed as change in body weight at 100 mg/kg, po for 4 weeks measured after 3 weeks (reference value: 29.1+/-0.8 g); format: functional

EC50 (Bile acid receptor): 0.12 µM
half-life [12]: 1.4 h
half-life [13]: 1.83 h
Vd [14]: 1.6 L/kg
Vd [15]: 0.15 L/kg
bioavailability [16]: 42%
bioavailability [17]: 23%
bioavailability [18]: 15%
AUC (Mus musculus [19]): 310 ng·kg·h/mg/mL
AUC (Rattus norvegicus): 130 ng·kg·h/mg/mL
AUC (Canis familiaris): 1260 ng·kg·h/mg/mL
AUC (Cynomolgus monkey): 850 ng·kg·h/mg/mL
IC50 (Cytochrome P450 2C19): > 33 µM
IC50 (Cytochrome P450 2D6): > 33 µM
Ratio EC50 (Homo sapiens [20]): 100
Ratio EC50 (Homo sapiens [21]): 100
Ratio EC50 (Homo sapiens [22]): 100
Ratio EC50 (Homo sapiens [23]): 100
Ratio EC50 (Homo sapiens [24]): 100
Ratio EC50 (Homo sapiens [25]): 100
Ratio EC50 (Homo sapiens [26]): 100
Papp [27]: 18.3 ×10⁻⁶ cm/s
solubility [28]: 1 ng/mL (≈ 1.87 nM)
Activity [29]: Active
SMILES: CC(C)c1onc(-c2c(Cl)cccc2Cl)c1COc1ccc(-c2ccc3nc(C(=O)O)ccc3c2)cc1
Activity (Mus musculus [1]): 25.6 g
Activity (Mus musculus [2]): 0.53 mEq/dL
Activity (Mus musculus [3]): 10.8 mg/dL
Activity (Mus musculus [4]): 282.2 mg/dL
Activity (Mus musculus [5]): 0.58 ng/mL
Activity (Mus musculus [6]): 0.52 mEq/dL
Activity (Mus musculus [7]): 1.8 mg/dL
Activity (Mus musculus [8]): 241.4 mg/dL
Activity (Mus musculus [9]): 87.9 mg/dL
Activity (Mus musculus [10]): 9.7 mg/dL
Activity (Mus musculus [11]): 3.3 mg/dL
Activity (Mus musculus [30]): 29.4 g
Activity (Mus musculus [31]): 29.3 g
Activity (Mus musculus [32]): 29 g
Activity (Mus musculus [33]): 28.4 g
Activity (Mus musculus [34]): 27.3 g
Activity (Mus musculus [35]): 25.6 g
Activity (Mus musculus [36]): 23.2 g
Activity (Mus musculus [37]): 24.1 g
